In ChEMBL document CHEMBL1138641, “2-(4-Methoxyphenoxy)-5-nitro-N-(4-sulfamoylphenyl)benzamide activates Kir6.2/SUR1 K(ATP) channels” (Bioorg Med Chem Lett, 2004) one finds IC50 and Efficacy data, which are given here for 15 compounds.

For experiment [1], the system named is Beta-TC6. Kind of experiment: Concentration required for inhibition of glucose stimulated insulin release from beta TC6 cells. The class given is functional, cell-based, Mus musculus.
The nature of experiment [2]: inhibitory concentration required for repolarization of beta cell membrane potential in presence of 10 mM glucose. The class given is functional, Homo sapiens.
The subject of experiment [3] is Beta-TC6. Kind of experiment: Percent efficacy for inhibition of glucose stimulated insulin release from beta TC6 cells. The class given is functional, Mus musculus.
The test system of another experiment is HEK293. In words: Potency by repolarisation of tolbutamide-depolarised membrane potential in HEK 293 cells. The settings on record: Homo sapiens.
The mark [4] stands for this setting: Mus musculus, Beta-TC6, read-out: IC50.

For the compound `COc1ccc(Nc2ccc([N+](=O)[O-])cc2C(=O)Nc2ccc(S(N)(=O)=O)cc2)cc1`, the half-inhibitory concentration (IC50) – broadly, the concentration needed to halve the response being measured – was 26.6 µM in the experiment on Beta-TC6 [1] (setting [4]) and “No significant activity” in experiment [2]. Besides, the Efficacy in the experiment on Beta-TC6 [3] was 1%.
`CC1=Nc2ccc(Cl)cc2S(=O)(=O)N1` [DIAZOXIDE]: the 50% inhibitory concentration (IC50) in the experiment on Beta-TC6 [1] (setting [4]) is 23 µM; in the experiment with HEK293, 33000 nM; in experiment [2] (Homo sapiens, read-out: IC50) it was 13.7 µM. Also, in the experiment with Beta-TC6 [3], the Efficacy was 25%.
`COc1ccc(Oc2ccc([N+](=O)[O-])cc2C(=O)Nc2ccccc2S(N)(=O)=O)cc1`: the IC50 in the experiment on Beta-TC6 [1] (setting [4]) was 10.4 µM; in experiment [2], “No significant activity”. Moreover, the Efficacy with Beta-TC6 [3] was found to be 33%.
`COc1ccc(NC(=O)c2cc(C#N)ccc2Oc2ccc(OC)cc2)cc1`: the 50% inhibitory concentration (IC50) in the experiment on Beta-TC6 [1] (setting [4]) is 48.5 µM; in experiment [2] (Homo sapiens, read-out: IC50) it was 2.5 µM. This compound also yielded an Efficacy in the experiment on Beta-TC6 [3] of 17%.
Take `COc1ccc(NC(=O)c2cc([N+](=O)[O-])ccc2Oc2ccc(OC)cc2)cc1`: the IC50 turned out to be 1.6 µM in the experiment on Beta-TC6 [1] (setting [4]) and 3.4 µM in experiment [2] (Homo sapiens, read-out: IC50). Moreover, in the experiment with Beta-TC6 [3], the Efficacy was found to be 73%.
In the case of `CC(C)NC1=NS(=O)(=O)c2cc(Cl)ccc2N1`, the IC50 in the experiment on Beta-TC6 [1] (setting [4]) stood at 0.46 µM; with HEK293, 800 nM; in experiment [2] (Homo sapiens, read-out: IC50), 0.25 µM. Further, the Efficacy in the experiment with Beta-TC6 [3] is listed as 75%.
On to `CC1(NC2=NS(=O)(=O)c3sc(Cl)cc3N2)CC1` [TIFENAZOXIDE], for which the IC50 was 0.25 µM in the experiment with Beta-TC6 [1] (setting [4]) and 0.6 µM in experiment [2] (Homo sapiens, read-out: IC50). Further, in the experiment with Beta-TC6 [3], the Efficacy is 73%.
For the compound `COc1ccc(Oc2ccc([N+](=O)[O-])cc2C(=O)Nc2cccc(S(N)(=O)=O)c2)cc1`, the IC50 in the experiment with Beta-TC6 [1] (setting [4]) came to 20.5 µM; in experiment [2] (Homo sapiens, read-out: IC50), 9.9 µM. The compound further yielded an Efficacy in the experiment on Beta-TC6 [3] of 31%.
In the same order, the values of `COc1ccc(Oc2ccc([N+](=O)[O-])cc2C(=O)Nc2ccc(C(C)=O)cc2)cc1` are 1.12 µM, 8.1 µM and 75%.
Take `COc1ccc(Oc2ccc([N+](=O)[O-])cc2C(=O)Nc2ccc(S(N)(=O)=O)cc2)cc1`: the IC50 worked out at 0.82 µM in the experiment with Beta-TC6 [1] (setting [4]); 1300 nM in the experiment on HEK293; 1.8 µM in experiment [2] (Homo sapiens, read-out: IC50). Also, the Efficacy in the experiment with Beta-TC6 [3] is given as 79%.
As for `COc1ccc(Oc2ccc([N+](=O)[O-])cc2C(=O)Nc2ccc(F)cc2)cc1`, the IC50 turned out to be 5.67 µM with Beta-TC6 [1] (setting [4]) and 7.2 µM in experiment [2] (Homo sapiens, read-out: IC50). The same compound displayed an Efficacy in the experiment on Beta-TC6 [3] of 52%.
As to `CCN(C(=O)c1cc([N+](=O)[O-])ccc1Oc1ccc(OC)cc1)c1ccc(Cl)cc1`, the IC50 in the experiment with Beta-TC6 [1] (setting [4]) is 10.4 µM; in experiment [2] (Homo sapiens, read-out: IC50), 8.3 µM. Moreover, the Efficacy in the experiment on Beta-TC6 [3] is listed as 56%.
Take `COc1ccc(NC(=O)c2cc(N)ccc2Oc2ccc(OC)cc2)cc1`: the IC50 result (with Beta-TC6 [1] (beta-tc6); in experiment [2]) was “No significant activity” in each case.
Consider `COc1ccc(NC(=O)c2ccccc2Oc2ccccc2)cc1`, for which the IC50 entry (in the experiment on Beta-TC6 [1] (beta-tc6); in experiment [2]) was “No significant activity” in each case.
Take `COc1ccc(Oc2ccc([N+](=O)[O-])cc2C(=O)N(C)c2ccc(Cl)cc2)cc1`: the IC50 in the experiment with Beta-TC6 [1] (setting [4]) stood at 25.7 µM; in experiment [2] (Homo sapiens, read-out: IC50), 10.1 µM. In the experiment with Beta-TC6 [3], this compound came in with an Efficacy of 33%.
